Patent US8476029B2, “MCPP immunoassay” (priority 2009, dated 2013)
In brackets after ≈: the same amount, converted by molar mass. Several values for one entry are separate records, joined by “and”; a condition that tells them apart may be missing. Equal entries are not always repeated. Where two headings read alike, the source gives them in different places.

Experiments:
[1] = system: Generic antibody (antibody raised from the mCPP-derived immunogen); format: binding, sheep; conditions: for % CR (percentage cross-reactivity): based on Nefazodone (100%); for IC50 (standard concentration which produces 50% B/B0): generic antibody
Method: (§1) The resulting immunogens were administered separately to adult sheep on a monthly basis to provide target-specific polyclonal antisera. IgG was extracted from the antisera via caprylic acid/ammonium sulphate precipitation of immunoglobulin. Microtitre plates (Thermo Scientific, 95029180) were coated with antibody (125 μl) in coating buffer (10 mM Tris pH 8.5) at 37° C. for 2 hours. […] The plates were then washed. […] The plates were then washed and 125 μl of TMB (Randox, 4380-15) was added to each well and left at room temperature for 20 minutes in the dark. The reaction was stopped using 125 μl of 0.2M sulphuric acid. The absorbances were then read at 450 nm with an ELISA microplate reader (BIO-TEK Instruments, EL340) and the means calculated. Antibody specificity and sensitivity were then determined.

[2] = system: Trazodone antibody (antibody raised from the trazodone-derived immunogen); format: binding, sheep; conditions: for % CR (percentage cross-reactivity): based on Trazodone (100%)
Method: as §1

[3] = humans, urine; cited from earlier work

Compound	% CR (percentage cross-reactivity) [1]	IC50 (standard concentration which produces 50% B/B0) [1]	% B/B0 ([1]; standard conc 0.156 ng/ml)	% B/B0 ([1]; standard conc 0.313 ng/ml)	% B/B0 ([1]; standard conc 0.625 ng/ml)	% B/B0 ([1]; standard conc 1.250 ng/ml)	% B/B0 ([1]; standard conc 2.500 ng/ml)	% B/B0 ([1]; standard conc 5.000 ng/ml)	% B/B0 ([1]; standard conc 10.000 ng/ml)	% CR (percentage cross-reactivity) [2]	% B/B0 ([2]; standard conc 0.156 ng/ml)	% B/B0 ([2]; standard conc 0.313 ng/ml)	% B/B0 ([2]; standard conc 0.625 ng/ml)	% B/B0 ([2]; standard conc 1.250 ng/ml)	% B/B0 ([2]; standard conc 2.500 ng/ml)	% B/B0 ([2]; standard conc 5.000 ng/ml)	% B/B0 ([2]; standard conc 10.000 ng/ml)	A450 (absorbance at 450 nm) ([1]; standard conc 0.156 ng/ml)	A450 (absorbance at 450 nm) ([1]; standard conc 0.313 ng/ml)	A450 (absorbance at 450 nm) ([1]; standard conc 0.625 ng/ml)	other results
CCc1nn(CCCN2CCN(c3cccc(Cl)c3)CC2)c(=O)n1CCOc1ccccc1 [Nefazodone]	100%	3.901 ng/mL (≈ 0.0083 µM)	91%	83%	73%	58%	46%	34%	24%	1.38%	97%	99%	97%	100%	99%	105%	107%				A450 (absorbance at 450 nm) [2]: 1.621 and 1.677 and 1.663 and 1.765 and 1.799 and 1.631 and 1.656; mCPP as share of total metabolites (minor urinary metabolite of nefazodone) [3]: less than 1%
Clc1cccc(N2CCNCC2)c1 [mCPP, 1-(3-chlorophenyl)piperazine]	46%	8.476 ng/mL (≈ 0.0431 µM)	85%	79%	72%	65%	55%	48%	42%	0.68%	98%	100%	100%	100%	101%	103%	106%	1.821	1.679	1.534	A450 (absorbance at 450 nm) ([1]; standard conc 1.250 ng/ml): 1.380; A450 (absorbance at 450 nm) ([1]; standard conc 2.500 ng/ml): 1.183; A450 (absorbance at 450 nm) ([1]; standard conc 5.000 ng/ml): 1.027; A450 (absorbance at 450 nm) ([1]; standard conc 10.000 ng/ml): 0.888; A450 (absorbance at 450 nm) ([2]; standard conc 0.156 ng/ml): 1.721; A450 (absorbance at 450 nm) ([2]; standard conc 0.313 ng/ml): 1.755; A450 (absorbance at 450 nm) ([2]; standard conc 0.625 ng/ml): 1.756; A450 (absorbance at 450 nm) ([2]; standard conc 1.250 ng/ml): 1.759; A450 (absorbance at 450 nm) ([2]; standard conc 2.500 ng/ml): 1.782; A450 (absorbance at 450 nm) ([2]; standard conc 5.000 ng/ml): 1.814; A450 (absorbance at 450 nm) ([2]; standard conc 10.000 ng/ml): 1.857
O=c1n(CCCN2CCN(c3cccc(Cl)c3)CC2)nc2ccccn12 [Trazodone, 2-(3-[4-(3-chlorophenyl)piperazin-1-yl]propyl)-[1,2,4]triazolo[4,3-α]pyridin-3(2H)-one]	733%		67%	58%	48%	35%	25%	18%	13%	100%	47%	33%	21%	14%	9%	5%	3%	1.456	1.271	1.041	A450 (absorbance at 450 nm) ([1]; standard conc 1.250 ng/ml): 0.763; A450 (absorbance at 450 nm) ([1]; standard conc 2.500 ng/ml): 0.551; A450 (absorbance at 450 nm) ([1]; standard conc 5.000 ng/ml): 0.398; A450 (absorbance at 450 nm) ([1]; standard conc 10.000 ng/ml): 0.287; A450 (absorbance at 450 nm) ([2]; standard conc 0.156 ng/ml): 0.816; A450 (absorbance at 450 nm) ([2]; standard conc 0.313 ng/ml): 0.570; A450 (absorbance at 450 nm) ([2]; standard conc 0.625 ng/ml): 0.375; A450 (absorbance at 450 nm) ([2]; standard conc 1.250 ng/ml): 0.237; A450 (absorbance at 450 nm) ([2]; standard conc 2.500 ng/ml): 0.151; A450 (absorbance at 450 nm) ([2]; standard conc 5.000 ng/ml): 0.093; A450 (absorbance at 450 nm) ([2]; standard conc 10.000 ng/ml): 0.057
